Target: BTK (Homo sapiens (Human), UniProt Q06187)
Assay: In house ELISA kinase inhibition assay, BTK
Assay type: biochemical
Settings: footnote b: from in house procedure (ELISA)
Method: BTK inhibition Assay and selectivity Assay The assay was conducted either a by a third party (Reaction Biology Corporation, PA, USA) or in house.
b) In House Procedure for BTK, BMX, EGFR and ITK:
Kinase inhibitory activities of compounds were evaluated using the Enzyme-linked immunosorbent assay (ELISA). The kinase enzyme of BTK, BMX, EGFR and ITK were purchased from Carna Bioscience (Kobe, Japan). A total of 10 ng/mL antiphosphotyrosine (PY713) antibody (abcam, Cambridge Science Park, UK) was precoated in 96-well ELISA plates. The kinase enzymes in each reaction well were set to BTK (101.25 ng/mL), BMX (90 ng/mL), EGFR (90 ng/mL) or ITK (120 ng/mL) and incubated with indicated drugs in 1× reaction buffer (50 mmol/L HEPES pH 7.4, 20 mmol/L MgCl2, 0.1 mmol/L MnCl2, 1 mmol/L DTT) containing 20 μmol/L (the final concentration of substrate in ITK reaction was 30 μmol/L) substrate (NH2-[…]-biotin) at 25° C. for 1 h. Then, a total of 3 μmol/L ATP was added and the reaction was continued for 2 h. The products of reaction were transferred into 96-well ELISA plates containing antibody and incubated at 25° C. for 30 min. After incubation, the wells were washed with PBS and then incubated with horseradish peroxidase (HRP)-conjugated streptavidin. The wells were visualized using 3,3′,5,5′-tetramethylbenzidine (TMB), and chromogenic reaction was ended with 2 mol/L H2SO4, the absorbance was read with a multimode plate reader (PerkinElmer, USA) at 450 nm. IC50 values and curve fits were obtained using Prism (GraphPad Software). (Table I-IV)

Chain of BTK (Q06187 whole entry): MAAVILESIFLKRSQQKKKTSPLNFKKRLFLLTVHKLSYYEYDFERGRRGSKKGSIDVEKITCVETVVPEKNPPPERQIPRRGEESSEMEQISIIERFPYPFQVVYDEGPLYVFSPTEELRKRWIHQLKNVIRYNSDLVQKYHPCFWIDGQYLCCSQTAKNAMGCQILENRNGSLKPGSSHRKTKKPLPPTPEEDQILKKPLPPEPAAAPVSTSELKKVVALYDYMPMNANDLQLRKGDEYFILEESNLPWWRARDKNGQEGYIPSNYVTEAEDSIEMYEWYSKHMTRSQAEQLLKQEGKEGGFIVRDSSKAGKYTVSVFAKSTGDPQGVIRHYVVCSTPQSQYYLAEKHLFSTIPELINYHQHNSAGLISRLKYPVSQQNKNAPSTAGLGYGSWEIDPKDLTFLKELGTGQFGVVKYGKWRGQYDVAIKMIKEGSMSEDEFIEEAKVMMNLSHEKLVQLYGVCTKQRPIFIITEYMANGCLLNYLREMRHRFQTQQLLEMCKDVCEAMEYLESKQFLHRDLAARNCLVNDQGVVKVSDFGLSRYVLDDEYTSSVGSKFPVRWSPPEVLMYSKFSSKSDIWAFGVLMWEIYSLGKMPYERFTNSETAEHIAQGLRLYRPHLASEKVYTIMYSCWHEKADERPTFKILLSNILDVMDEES

SMILES	IC50
C=CC(=O)N1CCC[C@H]1c1nc(-c2ccc(C(=O)Nc3cc(C)ccn3)cc2)c(C(N)=O)n1N [Example 10, (S)-2-(1-acryloylpyrrolidin-2-yl)-1-amino-4-(4-((4-methylpyridin-2-yl)carbamoyl)phenyl)-1H-imidazole-5-carboxamide]	0.079 µM
C=CC(=O)N1CCC[C@H]1c1nc(-c2ccc(C(=O)Nc3ccc(C)cn3)cc2)c(C(N)=O)n1N [Example 19, (S)-2-(1-acryloylpyrrolidin-2-yl)-1-amino-4-(4-((5-methylpyridin-2-yl)carbamoyl)phenyl)-1H-imidazole-5-carboxamide]	0.212 µM
CC#CC(=O)N1CCC[C@H]1c1nc(-c2ccc(C(=O)Nc3ccc(C)cn3)cc2)c(C(N)=O)n1N [Example 27, (S)-1-amino-2-(1-(but-2-ynoyl)pyrrolidin-2-yl)-4-(4-((5-methylpyridin-2-yl)carbamoyl)phenyl)-1H-imidazole-5-carboxamide]	2.06 µM
CC#CC(=O)N1CCC[C@H]1c1nc(-c2ccc(C(=O)Nc3cc(OC)ccn3)cc2)c(C(N)=O)n1N [Example 34, (S)-1-amino-2-(1-(but-2-ynoyl)pyrrolidin-2-yl)-4-(4-((4-methoxy-pyridin-2-yl)carbamoyl)phenyl)-1H-imidazole-5-carboxamide]	1.67 µM
CC#CC(=O)N1CCC[C@H]1c1nc(-c2ccc(C(=O)Nc3cc(CC)ccn3)cc2)c(C(N)=O)n1N [Example 38, (S)-1-amino-2-(1-(but-2-ynoyl)pyrrolidin-2-yl)-4-(4-((4-ethylpyridin-2-yl)carbamoyl)phenyl)-1H-imidazole-5-carboxamide]	1.04 µM
CCc1ccnc(NC(=O)c2ccc(-c3nc([C@@H]4CCCN4C#N)n(N)c3C(N)=O)cc2)c1 [Example 39, (S)-1-amino-2-(1-cyanopyrrolidin-2-yl)-4-(4-((4-ethylpyridin-2-yl)carbamoyl)phenyl)-1H-imidazole-5-carboxamide]	3.85 µM
CC#CC(=O)N1CCC[C@H]1c1nc(-c2ccc(C(=O)Nc3cc(F)ccn3)cc2)c(C(N)=O)n1N [Example 41, (S)-1-amino-2-(1-(but-2-ynoyl)pyrrolidin-2-yl)-4-(4-((4-fluoropyridin-2-yl)carbamoyl)phenyl)-1H-imidazole-5-carboxamide]	1.68 µM
CC#CC(=O)N1CCC[C@H]1c1nc(-c2ccc(C(=O)Nc3cc(C(F)(F)F)ccn3)cc2)c(C(N)=O)n1N [Example 43, (S)-1-amino-2-(1-(but-2-ynoyl)pyrrolidin-2-yl)-4-(4-((4-(trifluoro-methyl)pyridin-2-yl)carbamoyl)phenyl)-1H-imidazole-5-carboxamide]	0.577 µM
C=CC(=O)N1CCC[C@H]1c1nc(-c2ccc(C(=O)Nc3cc(C(C)C)ccn3)cc2)c(C(N)=O)n1N [Example 44, (S)-2-(1-acryloylpyrrolidin-2-yl)-1-amino-4-(4-((4-isopropylpyridin-2-yl)carbamoyl)phenyl)-1H-imidazole-5-carboxamide]	0.122 µM
CC#CC(=O)N1CCCC[C@H]1c1nc(-c2ccc(C(=O)Nc3ccccn3)cc2)c(C(N)=O)n1N [Example 50, (S)-1-amino-2-(1-(but-2-ynoyl)piperidin-2-yl)-4-(4-(pyridin-2-ylcarbamoyl)phenyl)-1H-imidazole-5-carboxamide]	0.1 µM
C=C(F)C(=O)N1CCCC[C@H]1c1nc(-c2ccc(C(=O)Nc3cc(C)ccn3)cc2)c(C(N)=O)n1N [Example 59, (S)-1-amino-2-(1-(2-fluoroacryloyl)piperidin-2-yl)-4-(4-((4-methylpyridin-2-yl)carbamoyl)phenyl)-1H-imidazole-5-carboxamide]	1.27 µM
CC#CC(=O)N1CCCC[C@H]1c1nc(-c2ccc(C(=O)Nc3ccc(C)cn3)cc2)c(C(N)=O)n1N [Example 64, (S)-1-amino-2-(1-(but-2-ynoyl)piperidin-2-yl)-4-(4-((5-methylpyridin-2-yl)carbamoyl)phenyl)-1H-imidazole-5-carboxamide]	0.129 µM
CC#CC(=O)N1CCCC[C@H]1c1nc(-c2ccc(C(=O)Nc3cc(OC)ccn3)cc2)c(C(N)=O)n1N [Example 68, (S)-1-amino-2-(1-(but-2-ynoyl)piperidin-2-yl)-4-(4-((4-methoxy-pyridin-2-yl)carbamoyl)phenyl)-1H-imidazole-5-carboxamide]	0.0796 µM
C=C(F)C(=O)N1CCCC[C@H]1c1nc(-c2ccc(C(=O)Nc3cc(OC)ccn3)cc2)c(C(N)=O)n1N [Example 70, (S)-1-amino-2-(1-(2-fluoroacryloyl)piperidin-2-yl)-4-(4-((4-methoxy-pyridin-2-yl)carbamoyl)phenyl)-1H-imidazole-5-carboxamide]	2.89 µM

Molecules with a lower IC50, results first:

IC50	SMILES
0.0729 µM	C=CC(=O)N1CCC[C@H]1c1nc(-c2ccc(C(=O)Nc3cc(OC)ccn3)cc2)c(C(N)=O)n1N [Example 28, (S)-2-(1-acryloylpyrrolidin-2-yl)-1-amino-4-(4-((4-methoxypyridin-2-yl)carbamoyl)phenyl)-1H-imidazole-5-carboxamide]
0.033 µM	C=CC(=O)N1CCC[C@H]1c1nc(-c2ccc(C(=O)Nc3cc(CC)ccn3)cc2)c(C(N)=O)n1N [Example 35, (S)-2-(1-acryloylpyrrolidin-2-yl)-1-amino-4-(4-((4-ethylpyridin-2-yl)carbamoyl)phenyl)-1H-imidazole-5-carboxamide]
0.0706 µM	C=CC(=O)N1CCC[C@H]1c1nc(-c2ccc(C(=O)Nc3cc(F)ccn3)cc2)c(C(N)=O)n1N [Example 40, (S)-2-(1-acryloylpyrrolidin-2-yl)-1-amino-4-(4-((4-fluoropyridin-2-yl)carbamoyl)phenyl)-1H-imidazole-5-carboxamide]
0.048 µM	C=CC(=O)N1CCC[C@H]1c1nc(-c2ccc(C(=O)Nc3cc(C(F)(F)F)ccn3)cc2)c(C(N)=O)n1N [Example 42, (S)-2-(1-acryloylpyrrolidin-2-yl)-1-amino-4-(4-((4-(trifluoromethyl)pyridin-2-yl)carbamoyl)phenyl)-1H-imidazole-5-carboxamide]
0.0582 µM	C=CC(=O)N1CCC[C@H]1c1nc(-c2ccc(C(=O)Nc3cc(C)ccn3)cc2)c(C(N)=O)n1NC [Example 45, (S)-2-(1-acryloylpyrrolidin-2-yl)-1-(methylamino)-4-(4-((4-methyl-pyridin-2-yl)carbamoyl)phenyl)-1H-imidazole-5-carboxamide]
0.0181 µM	C=CC(=O)N1CCCC[C@H]1c1nc(-c2ccc(C(=O)Nc3cc(C)ccn3)cc2)c(C(N)=O)n1N [Example 53, (S)-2-(1-acryloylpiperidin-2-yl)-1-amino-4-(4-((4-methylpyridin-2-yl)carbamoyl)phenyl)-1H-imidazole-5-carboxamide]
0.0581 µM	CC#CC(=O)N1CCCC[C@H]1c1nc(-c2ccc(C(=O)Nc3cc(C)ccn3)cc2)c(C(N)=O)n1N [Example 58, (S)-1-amino-2-(1-(but-2-ynoyl)piperidin-2-yl)-4-(4-((4-methylpyridin-2-yl)carbamoyl)phenyl)-1H-imidazole-5-carboxamide]
0.0439 µM	Cc1ccnc(NC(=O)c2ccc(-c3nc([C@@H]4CCCCN4C(=O)/C=C/C(F)(F)F)n(N)c3C(N)=O)cc2)c1 [Example 60, (S,E)-1-amino-4-(4-((4-methylpyridin-2-yl)carbamoyl)phenyl)-2-(1-(4,4,4-trifluorobut-2-enoyl)piperidin-2-yl)-1H-imidazole-5-carboxamide]
0.0184 µM	C=CC(=O)N1CCCC[C@H]1c1nc(-c2ccc(C(=O)Nc3ccc(C)cn3)cc2)c(C(N)=O)n1N [Example 61, (S)-2-(1-acryloylpiperidin-2-yl)-1-amino-4-(4-((5-methylpyridin-2-yl)carbamoyl)phenyl)-1H-imidazole-5-carboxamide]
0.00506 µM	C=CC(=O)N1CCCC[C@H]1c1nc(-c2ccc(C(=O)Nc3cc(-c4ccccc4)ccn3)cc2)c(C(N)=O)n1N [Example 65, (S)-2-(1-acryloylpiperidin-2-yl)-1-amino-4-(4-((4-phenylpyridin-2-yl)carbamoyl)phenyl)-1H-imidazole-5-carboxamide]
0.0164 µM	CC#CC(=O)N1CCCC[C@H]1c1nc(-c2ccc(C(=O)Nc3cc(-c4ccccc4)ccn3)cc2)c(C(N)=O)n1N [Example 66, (S)-1-amino-2-(1-(but-2-ynoyl)piperidin-2-yl)-4-(4-((4-phenylpyridin-2-yl)carbamoyl)phenyl)-1H-imidazole-5-carboxamide]
0.00912 µM	C=CC(=O)N1CCCC[C@H]1c1nc(-c2ccc(C(=O)Nc3cc(OC)ccn3)cc2)c(C(N)=O)n1N [Example 67, (S)-2-(1-acryloylpiperidin-2-yl)-1-amino-4-(4-((4-methoxypyridin-2-yl)carbamoyl)phenyl)-1H-imidazole-5-carboxamide]
0.0707 µM	COc1ccnc(NC(=O)c2ccc(-c3nc([C@@H]4CCCCN4C(=O)/C=C/C(F)(F)F)n(N)c3C(N)=O)cc2)c1 [Example 69, (S,E)-1-amino-4-(4-((4-methoxypyridin-2-yl)carbamoyl)phenyl)-2-(1-(4,4,4-trifluorobut-2-enoyl)piperidin-2-yl)-1H-imidazole-5-carboxamide]
